What was measured:
L929 cells = test: Apoptosis induction by azoles in L929 cells with TGF-beta; type: cell-based, murine; settings: 2 mM histidine; 3-AT at 25 mM
Experimental: FIG. 3 discloses experimental data obtained with 25000 L929 cells in 48 well tissue culture clusters in the presence of 20 ng/ml TGF-beta. Itraconazole was added at the indicated concentrations, in the presence or absence of 2 mM histidine (singlet oxygen scavenger). The percentage of apoptotic cells was determined after 37 hrs.
The dashed lines indicate the percentage of apoptotic cells obtained when the tumor cell catalase was blocked by 25 mM […] (3-AT).
FIG. 4 discloses experimental data obtained with 25000 L929 cells in 48 well tissue culture clusters in the presence of 20 ng/ml TGF-beta. “No addition” represents the control without addition of compound. […] The percentage of apoptotic cells was determined after 63 hrs.
The first step comprises contacting tumor cells in media comprising TGF-beta with the test compounds to be analyzed for their properties of apoptosis induction. After a specific incubation time, the extent of apoptosis induction is determined, e.g. after two days. Methods for determining the apoptosis in cells in a quantitative manner are well known in the art and are for example described by Jürgensmeier et al. (Cancer Research 1994; 54:393-398). […] These features of apoptotic cells can be determined through phase contrast microscopy or after chromatin staining with fluorescent dyes, followed by fluorescence microscopy. […]

[1] = system: SKNMC cells (human neuroblastoma); test: Apoptosis induction in SKNMC cells with ROS pathway inhibitors (FIG. 5); type: cell-based
Experimental: FIG. 5 discloses experimental data obtained with 25 000 SKNMC cells (human neuroblastoma) in 48 well tissue culture clusters (without addition of TGF-beta). […] Control assays contained the respective compound in the absence of any inhibitors. Parallel assays contained either 200 μM of the NADPH (nicotinamide adenine dinucleotide phosphate) oxidase inhibitor AEBSF, 10 μM of the nNOS-specific NO synthetase inhibitor 3-Br-7-Ni (3-bromo-7-nitroindazole), 2 mM of the singlet oxygen scavenger histidine or 50 mM of the HOCl scavenger taurine. The percentage of apoptotic cells was determined at the indicated time points.
For all inducers, apoptosis induction was dependent on superoxide anion generation and NO synthesis, as it was blocked by AEBSF and 3-Br-7-Ni respectively. In contrast to the NO/peroxynitrite pathway, the HOCl pathway played no role for apoptosis induction in this particular line. Apoptosis induction by all azoles tested depended on singlet oxygen action, as it was blocked by histidine.

Nc1nc[nH]n1 [3-AT, 3-aminotriazole]
effect of histidine on induced apoptosis (L929 cells): not blocked by histidine | effect of histidine on induced apoptosis (singlet oxygen dependence) ([1]; 2 mM histidine): singlet oxygen is not required | apoptosis induction (percentage of apoptotic cells) ([1]; 12.5 or 25 μg/ml azole, 75 mM 3-AT, without TGF-beta): induced apoptosis in the tumor cells to a significant extent

From patent US8829004B2, “Method for inducing tumor apoptosis by increasing nitric oxide levels” (Universitätsklinikum Freiburg, priority 2006, dated 2014)
